Assay results from patent US7977082B2, “Isomaltulose synthases, polynucleotides encoding them and uses therefor” (The University of Queensland of St. Lucia, priority 2001, dated 2011).

Legend:
E. rhapontici WAC2928 = experiment: Growth in BP medium with different sugars; format: cell-based; conditions: 2% sugar added to BP medium, 18 h incubation at 30°C
Experimental: (§1) Isomaltulose production was tested using cells grown in LB and in a basal peptone medium (BP, comprising 1% BBL gelysate peptone and 0.5% NaCl, adjusted to pH 7.0 prior to autoclaving). Glucose, fructose, sucrose, lactose, maltose or isomaltulose was added to the cooled media, from a filter-sterilised stock. The media containing 4% (w/v) sucrose are referred to as SLB and SBP respectively.
(§2) Inoculum of 100 μL from a culture grown for 12 h in LB medium was added to 25 mL growth medium in a 250 mL flask. After 18 h at 30° C. on a shaker at 225 rpm, OD600 was used to measure growth. Cultures were diluted with growth medium to OD600=1.50 (approximately half the cell density of a saturated culture in SLB). Aliquots of 1 mL were harvested by centrifugation at 5000×g for 10 min and washed three times with 0.1 M citrate/phosphate buffer (pH 6.0). The cell pellets were resuspended in 0.4 mL of 0.1 M citrate/phosphate buffer (pH 6.0) containing 50% sucrose (w/v). Culture supernatant was filtered through a 0.2 μm filter (Pall Acrodisc), and 0.1 mL was mixed with 0.4 mL of 0.1 M citrate/phosphate buffer (pH 6.0) containing 50% sucrose (w/v), for parallel testing of culture filtrate and harvested cells in the SI assay.

P. dispersa 68J = experiment: Growth in BP medium with different sugars; format: cell-based; conditions: 2% sugar added to BP medium, 18 h incubation at 30°C
Experimental: as §1, §2

[1] = tested on: P. mesoacidophila sucrose isomerase (SI); conditions: Nagai et al., 1994; Véronèse and Perlot, 1998; cited from earlier work
[2] = target: T1, Klebsiella sp. 14S sucrose isomerase (SI), carboxy-terminal 6×His tag (SEQ ID NO: 52) (Klebsiella planticola, UniProt Q6XKX6); experiment: Sucrose isomerase kinetics, purified SI from Klebsiella sp. 14S (isomaltulose production), with or without glucose/fructose; format: biochemical; conditions: glucose vs fructose, 0.277 M, various sucrose concentrations
T1 sequence (Q6XKX6 29-598): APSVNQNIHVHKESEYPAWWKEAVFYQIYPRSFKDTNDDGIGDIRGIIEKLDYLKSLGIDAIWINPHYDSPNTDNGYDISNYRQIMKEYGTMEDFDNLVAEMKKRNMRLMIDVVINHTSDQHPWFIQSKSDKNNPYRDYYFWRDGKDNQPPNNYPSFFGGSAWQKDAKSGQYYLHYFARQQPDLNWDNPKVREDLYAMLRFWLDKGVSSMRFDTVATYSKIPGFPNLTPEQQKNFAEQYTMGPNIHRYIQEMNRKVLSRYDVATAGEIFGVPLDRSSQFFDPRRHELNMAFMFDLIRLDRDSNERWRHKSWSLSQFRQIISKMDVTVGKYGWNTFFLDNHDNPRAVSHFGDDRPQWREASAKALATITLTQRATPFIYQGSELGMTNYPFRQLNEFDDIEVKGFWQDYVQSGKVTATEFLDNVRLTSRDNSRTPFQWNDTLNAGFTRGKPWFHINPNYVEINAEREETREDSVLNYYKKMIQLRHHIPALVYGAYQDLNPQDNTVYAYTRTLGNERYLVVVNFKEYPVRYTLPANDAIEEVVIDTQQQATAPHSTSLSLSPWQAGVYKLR
Experimental: The pET24b vector introduces a carboxy-terminal 6×His tag (SEQ ID NO: 52) on expressed proteins, which were purified by adsorption to Ni-NTA agarose (Qiagen) and elution with 25 mM NaH2PO4, 150 mM NaCl, 125 mM imidazole buffer (pH8.0) following the manufacturer's instructions. For storage, the eluted solution was diluted with 50% glycerol. The purity of SI proteins was tested by SDS-PAGE as described below. A batch procedure using Ni-NTA agarose in suspension yielded predominantly (80-95%) SI with a background of several other protein bands. A procedure using Ni-NTA agarose in adsorption columns yielded preparations containing a single protein band. […]
Enzyme activities were measured by incubating 5 μl of purified enzyme with 95 μL of sucrose solution at a final concentration of 584 mM in 0.1 M citrate/phosphate buffer (pH 6.0) at 30° C. Sugar profiles in the reaction mix were analysed at intervals by CE as described previously. […]
(§3) SI activity was measured by incubating the purified enzyme with different sucrose concentrations (3, 6, 15, 58, 146, 292, 584, 877, 1169 and 1461 mM) under standard assay conditions, and also with addition of glucose, fructose or both to a final concentration of 277 mM. Data were analyzed according to the method of Lineweaver and Burk (Voet and Voet, 1995) to calculate Km and Vmax values.

[3] = tested on: P. rubrum sucrose isomerase (SI); conditions: Nagai et al., 1994; Véronèse and Perlot, 1998; cited from earlier work
[4] = tested on: E. rhapontici sucrose isomerase (SI); conditions: Nagai et al., 1994; Véronèse and Perlot, 1998; cited from earlier work
[5] = tested on: K. plymuthica sucrose isomerase (SI); conditions: Nagai et al., 1994; Véronèse and Perlot, 1998; cited from earlier work
[6] = target: T2, Pantoea dispersa 68J sucrose isomerase (SI), mature, SEQ ID NO: 10, carboxy-terminal 6×His tag (SEQ ID NO: 52) (Pantoea dispersa, UniProt Q6XNK6); experiment: Sucrose isomerase kinetics, purified SI from P. dispersa 68J (isomaltulose production), with or without glucose/fructose; format: biochemical; conditions: glucose vs fructose, 0.277 M, various sucrose concentrations
T2 sequence (Q6XNK6 34-598): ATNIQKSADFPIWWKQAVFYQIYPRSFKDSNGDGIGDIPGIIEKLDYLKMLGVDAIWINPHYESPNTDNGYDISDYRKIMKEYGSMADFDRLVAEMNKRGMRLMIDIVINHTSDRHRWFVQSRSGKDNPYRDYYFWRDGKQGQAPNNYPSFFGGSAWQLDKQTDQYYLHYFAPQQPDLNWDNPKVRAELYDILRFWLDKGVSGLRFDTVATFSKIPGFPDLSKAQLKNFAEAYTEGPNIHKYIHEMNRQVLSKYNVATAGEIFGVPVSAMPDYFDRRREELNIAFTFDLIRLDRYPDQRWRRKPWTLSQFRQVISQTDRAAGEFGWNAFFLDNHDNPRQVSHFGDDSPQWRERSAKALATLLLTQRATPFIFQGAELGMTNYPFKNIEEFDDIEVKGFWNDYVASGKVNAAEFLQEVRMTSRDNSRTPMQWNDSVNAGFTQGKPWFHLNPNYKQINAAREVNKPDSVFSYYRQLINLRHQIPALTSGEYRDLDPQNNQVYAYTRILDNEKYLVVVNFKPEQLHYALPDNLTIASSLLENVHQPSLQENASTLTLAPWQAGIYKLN
Experimental: (§4) The pET24b vector introduces a carboxy-terminal 6×His tag (SEQ ID NO: 52) on expressed proteins, which were purified by adsorption to Ni-NTA agarose (Qiagen) and elution with 25 mM NaH2PO4, 150 mM NaCl, 125 mM imidazole buffer (pH8.0) following the manufacturer's instructions. For storage, the eluted solution was diluted with 50% glycerol. The purity of SI proteins was tested by SDS-PAGE as described below. A batch procedure using Ni-NTA agarose in suspension yielded predominantly (80-95%) SI with a background of several other protein bands. A procedure using Ni-NTA agarose in adsorption columns yielded preparations containing a single protein band. Unless otherwise specified, this is the form of the purified SI enzymes used for biochemical characterisation.
(§5) Enzyme activities were measured by incubating 5 μl of purified enzyme with 95 μL of sucrose solution at a final concentration of 584 mM in 0.1 M citrate/phosphate buffer (pH 6.0) at 30° C. Sugar profiles in the reaction mix were analysed at intervals by CE as described previously. One unit (U) of SI activity was defined as the amount of enzyme that could release 1 μmol of isomaltulose in one minute at the initial stage of the reaction.
as §3

[7] = tested on: purified SI from Klebsiella sp. 14S; experiment: Inhibition of isomaltulose production by glucose and fructose; format: biochemical; conditions: 277 mM glucose or fructose
Experimental: as §3

[8] = tested on: purified SI from P. dispersa 68J; experiment: as above; format: biochemical; conditions: 277 mM glucose or fructose
Experimental: as §3

[9] = Conversion of sucrose to isomaltulose in transgenic sugarcane callus expressing SI genes; format: cell-based; conditions: cell extracts of transgenic sugarcane callus; 3 of 3 68J lines, 3 of 7 14S lines
From the text: The sucrose isomerase (SI) gene insert in the pET 24b vector was further cloned between the Ubi promoter from the maize ubi-l gene (Christensen and Quail, 1996, Transgen. Res. 5: 215-218) and the Agrobacterium nos terminator (Bevan et al., 1983, Nature 304: 183-187) to drive expression in sugarcane cells.
Plasmids with the sucrose isomerase genes (pU3ZErw, pU3Z14s or pU3Z68J) and the aph A construct plasmid pEmuKN (as a selectable marker) were isolated by alkaline extraction (Sambrook et al., 1989, supra), and dissolved in TE buffer. Plasmid intactness and absence of genomic DNA or RNA were checked by gel electrophoresis and concentration was measured by spectrophotometry. The sucrose isomerase (UbiSI) gene construct and selectable marker construct were co-precipitated onto tungsten microprojectiles and introduced into sugarcane callus, followed by selection for transformed callus, and regeneration of transgenic plants, essentially described by Bower et al. (1996, Molec. Breed. 2: 239-249).
Precipitation reactions were conducted by adding the following at 4° C. in turn to a 1.5 mL microfuge tube: 5 μL pEmuKN plasmid DNA (1 mg/mL), 5 μL UbiSI plasmid DNA (1 μg/μL), 50 μL tungsten (Bio-Rad M10, 100 μg/μL), 50 μL CaCl2 (2.5M), 20 μL spermidine (100 mM free base). […]

[10] = Assay of isolated (purified) SI enzyme activity; format: biochemical; conditions: purified fresh His-tagged enzymes
Experimental: as §4, §5
The enzymes were incubated with sucrose at different pH ranging from 2.0 to 10.6. The solution of pH 2.0 was buffered in 0.2 M KCl; pH 3.0 to pH 9.0 were in 0.1 M citrate/phosphate buffer; pH 10.0 to pH 10.6 were in 0.2 M glycine buffer. The effect of temperature from 10° C. to 70° C. was measured at pH 6.0. […]

[11] = Storage stability of purified SI proteins; format: physicochemical; conditions: elution buffer diluted with 50% glycerol
Experimental: The purified fresh enzymes from SDS-PAGE had specific activities for isomaltulose production of: E. rhapontici: 35 U mg^−1 protein, Klebsiella sp.: 95 U mg^−1 protein and P. dispersa: 632 U mg^−1 protein. The purified SI from E. rhapontici lost function during overnight storage at −20° C. in elution buffer diluted with 50% glycerol. In contrast, the purified enzymes from 14S or P. dispersa retained 100% of the fresh enzyme efficiency for isomaltulose production after 6-month storage at −20° C., or 60% after 15-day storage at room temperature in the same buffer. Because of instability, the E. rhapontici SI was not characterised further in purified form. Cheetham et al., (1984) found substantial differences between E. rhapontici strains for SI stability in immobilized cells, and the enzyme from strain NCPPB 1578 was stable in purified form (Cheetham, 1984).
as §4

## OC[C@H]1O[C@H](OC[C@H]2OC(O)(CO)[C@@H](O)[C@@H]2O)[C@H](O)[C@@H](O)[C@@H]1O (stereo partly drawn) [isomaltulose, α-D-glucopyranosyl-1,6-D-fructofuranose]
E. rhapontici WAC2928
  effect on growth of E. rhapontici WAC2928: substantially enhanced growth
P. dispersa 68J
  effect on growth of P. dispersa 68J: little effect

## OC[C@H]1OC(O)[C@H](O)[C@@H](O)[C@@H]1O (some centres unmarked) [glucose]
[1]
  Inhibition of activity: inhibit activity
[2]
  Relative inhibition: stronger inhibition than fructose
[3]
  Inhibition of activity: inhibit activity
[4]
  Inhibition of activity: inhibit activity
[5]
  Inhibition of activity: inhibit activity
[6]
  Relative inhibition: stronger inhibition than fructose

## O=C(CO)[C@@H](O)[C@H](O)[C@H](O)CO [fructose]
[7]
  mode of inhibition of isomaltulose production: competitive inhibitors
[8]
  mode of inhibition of isomaltulose production: competitive inhibitors
P. dispersa 68J
  effect on growth of P. dispersa 68J: supported faster growth

B1: Erwinia rhapontici: sucrose isomerase cloned from Erwinia rhapontici WAC2928, SEQ ID NO: 2, mature polypeptide SEQ ID NO: 4 (protein, listed as Erwinia rhapontici)
chain: MSSQELKAAVAIFLATTFSATSYQACSAGPDTAPSLTVQQSNALPTWWKQAVFYQVYPRSFKDTNGDGIGDLNGIIENLDYLKKLGIDAIWINPHYDSPNTDNGYDIRDYRKIMKEYGTMEDFDRLISEMKKRNMRLMIDIVINHTSDQHAWFVQSKSGKNNPYRDYYFWRDGKDGHAPNNYPSFFGGSAWEKDDKSGQYYLHYFAKQQPDLNWDNPKVRQDLYDMLRFWLDKGVXGLRFDTVATYSKIPNFPDLSQQQLKNFAEEYTKGPKIHDYVNEMNREVLSHYDIATAGEIFGVPLDKSIKFFDRRRNELNIAFTFDLIRLDRDADERWRRKDWTLSQFRKIVDKVDQTAGEYGWNAFFLDNHDNPRAVSHFGDDRPQWREHAAKALATLTLTQRATPFIYQGSELGMTNYPFKKIDDFDDVEVKGFWQDYVETGKVKAEEFLTNVRQTSRDNSRTPFQWDASKNAGFTSGTPWLKINPNYKEINSADQINNPNSVFNYYRKLINIRHDIPALTYGSYIDLAPDNNSVYAYTRTFGAEKYLVVINFKEEVMHYTLPGDLSINKVITENNSHTIVNKNDVEDPRGATSVCSPFQAQKRPGDPGYSAAHSIRFLPRFFASYRGDIHAFK
modifications: not fully specified; sig_peptide (1)..(36); mat_peptide (37)..(632); MOD_RES (200)..(200) Any amino acid
[9]
  isomaltulose peak relative to sucrose peak on the CE electrograph: even lower isomaltulose levels than the 14S lines
[10]
  specific activity for isomaltulose production: 35 U mg^−1 protein
[11]
  function after overnight storage at −20° C.: lost function
